Values quoted from earlier work, collected in patent publication US20210169807A1, “PHARMACEUTICAL COMPOSITION COMPRISING AN ATYPICAL ANTIPSYCHOTIC AGENT AND METHOD FOR THE PREPARATION THEREOF” (priority 2018, published 2021).
Read-outs that look alike come from different tables or passages of the source.

solubility (in 0.1N HCl): slightly soluble
solubility (in dichloromethane): sparingly soluble
solubility (in water): insoluble
SMILES: Cc1nc2n(c(=O)c1CCN1CCC(c3noc4cc(F)ccc34)CC1)CCCC2O (stereo not drawn) [Paliperidone, 3-[2-[4-(6-fluoro-1,2-benzisoxazol-3-yl)-1-piperidinyl]ethyl]-6,7,8,9-tetrahydro-9-hydroxy-2-methyl-4H-pyrido[1,2-a]pyrimidin-4-one]
